Target: Bcl-xL (Homo sapiens)
Assay: Binding affinity to human Bcl-xL protein by fluorescence polarization assay

- Ki: 1.11 µM
Compound: O=C(c1ccc(Oc2ccccc2)cc1)c1cc(C(=O)c2nc3ccccc3s2)c(O)c(O)c1O
